Experimental data published in patent US10710979B2, “EGFR kinase inhibitor and preparation method and use thereof” (ZHEJIANG BOSSAN PHARMACEUTICAL CO. LTD., priority 2015, dated 2020).

Tests used:
[1] = system: human lung cancer cells H1975; test: Effect of compounds on proliferation of tumor cells (MTT), H1975; assay type: cell-based; settings: for IC50: Homo sapiens, NCI-H1975, H1975 cells, 72 hours, MTT
Experimental: (§1) Human lung cancer cells H1975, H522, human hepatoma cell HepG2, human melanoma cell A375, human epidermal cancer cell A431, and human colon cancer cells COLO205 were cultivated. The cells were collected when they have grown to logarithmic growth phase, and centrifuged at 1000 rpm for 5 min, from which the supernatant was discarded, and the rest was suspended with appropriate amount of medium, and the concentration of cells was adjusted to 2.5-5.5×10^4/ml (once it was 3.0-5.5×10^4/ml). The cell suspension was inoculated into a 96-well cell culture plate with 100 μl per well, and placed in a cell incubator (37° C., 5% CO2) for 24 hours, and then 100 μl of the drug diluted in the cell culture medium was added to each well of the drug group. Three duplicate wells were set for each drug, and the negative control group was medium containing 0.5% DMSO. After being incubated for 72 hours in the incubator, 20 μl of MTT (5 mg/ml) was added to each well, which was placed under 37° C. for 3 hours. 150 μl of DMSO was added to each well and shaken at 37° C. for 5 mins, and absorbance (OD) was determined at 492 nm. The Prism Graphpad statistical software was used to calculate IC50 values.

[2] = system: human hepatoma cell HepG2; test: Effect of compounds on proliferation of tumor cells (MTT), HepG2; assay type: cell-based; settings: 72 hours
Experimental: as §1

[3] = system: human melanoma cell A375; test: Effect of compounds on proliferation of tumor cells (MTT), A375; assay type: cell-based; settings: A-375, 72 hours
Experimental: as §1

[4] = system: human epidermal cancer cell A431; test: Effect of compounds on proliferation of tumor cells (MTT), A431; assay type: cell-based; settings: A-431, 72 hours
Experimental: as §1

[5] = system: subcutaneously transplanted lung cancer H1975 tumors; test: In vivo efficacy in inhibiting human lung cancer H1975 xenograft; design: species or system BALB/c nude mice; settings: 30.0 mg/kg ig qd × 14 d; for Inhibition rate of tumor IR (tumor weight): tumor weight on day 14 vs negative control
Experimental: The inhibitory effect of ES series compounds to subcutaneously transplanted lung cancer H1975 tumors in nude mice was evaluated.
BALB/c nude mice, female, weighing 17-20 g, purchased from Beijing Weitong Lihua Experimental Animal Technology Co., Ltd. (license number: SCXK (Beijing) 2012-0001). Feeding environment: SPF grade animal room, free feeding, 12 h light/12 h dark.
Under aseptic conditions, H1975 cells in the proliferation stage were taken, whose cell concentration was adjusted after digestion, and seeded at armpit of nude mice with a volume of 0.1 mL. Tumor diameter was measured with vernier caliper, and after the tumor was grown to about 400 mm^3, 30 tumor-bearing mice were selected, which were randomly divided into 5 groups according to the size of the tumors. Each group was dosed according to the set dosing regimen, and the administering day was recorded as D1. The negative control group was given the same amount of vehicle. The longer and shorter diameters of tumor were measured twice a week; meanwhile the body weights of mice were weighed.
The relevant indicators were observed, measured and recorded on the first day of dosing. During the experiment, the tumor size was measured with a vernier caliper to observe the volume change and growth rate of the tumor mass. Tumor-bearing mice were sacrificed at the end of the experiment and the tumor mass was dissected and weighed.
Efficacy evaluation indicators include: relative tumor proliferation rate and weight, general status and other related toxicity indicators. At the end of the experiment, the tumor growth curve and weight change curve were drawn for each group.
The calculation formula of tumor volume (TV) is: TV=1/2×a×b^2, in which a and b respectively represent the longer and shorter diameters of the tumor. The relative tumor volume (RTV) was calculated based on the measured results and the formula was: RTV=Vt/V0, in which V0 is the tumor volume measured before dosing, and Vt is the tumor volume at each measurement after dosing.
The evaluation index of anti-tumor activity is relative tumor proliferation rate T/C (%), and the formula is as follows: […], TRTV: treatment group's RTV; CRTV: negative control group's RTV. T/C (%)≤40% and statistical treatment P<0.05 mean effective. The tumor weight (TW) is lower than that of the negative control group and statistical treatment P<0.05 mean effective. Inhibition rate of tumor IR (%)=(1−TTW/CTW)×100%, TTW: treatment group's TW; CTW: negative control group's TW.
The data was expressed as Mean±SD, and t-tests were used for comparison between groups.

[6] = system: human lung cancer cells H522; test: Effect of compounds on proliferation of tumor cells (MTT), H522; assay type: cell-based; settings: NCI-H522, 72 hours
Experimental: as §1

[7] = system: human colon cancer cells COLO205; test: Effect of compounds on proliferation of tumor cells (MTT), COLO205; assay type: cell-based; settings: COLO 205, 72 hours
Experimental: as §1

Structure (SMILES)	IC50 [1] [µM]	Inhibitory concentration relative to control compound 1686 ([1]; for most of the tumor cells of Test Example 1)	IC50 [2] [µM]	IC50 [3] [µM]	IC50 [4] [µM]	Inhibition rate of tumor IR (tumor weight) [5] [%]	IC50 [6] [µM]	IC50 [7] [µM]	Volume of subcutaneous tumors / anti-tumor effect ([5]; after 14 days)
C=CC(=O)Nc1cccc(Nc2nc(Nc3ccc(N4CCN(C(C)=O)CC4)nc3OC)ncc2C(F)(F)F)c1 [ES-071]	0.0228	½	0.968	2.26	0.992	50.93			
C=CC(=O)Nc1cccc(Nc2nc(Nc3ccc(N4CCN(C(C)=O)CC4)cc3OC)ncc2C(F)(F)F)c1 [Compound 1686, reference compound]	0.0525		1.49	3	1.57	50.09	0.522	4.72	
C=CC(=O)Nc1cccc(Nc2nc(Nc3cnc(N4CCN(C)CC4)cc3OC)ncc2C(F)(F)F)c1 [ES-075]	0.0367		3.54	2.75	1.27	37.27			
C=CC(=O)Nc1cccc(Nc2nc(Nc3ccc(N4CCN(C)CC4)nc3OC)ncc2C(F)(F)F)c1 [ES-072]	0.0342		3.31	2.4	0.773	79.42			better than that of the positive control group CO-1686
C=CC(=O)Nc1cccc(Nc2nc(Nc3ccc(N4CCN(C(=O)CC)CC4)nc3OC)ncc2C(F)(F)F)c1 [ES-137]	0.0211		2.69	3.58	2.27		2.29	4.12	
C=CC(=O)Nc1cccc(Nc2nc(Nc3cnc(N4CCN(C(=O)C5COC5)CC4)nc3OC)ncc2C(F)(F)F)c1 [ES-163]	0.168		18.9	19	7.5		5.11	5.49	
